ChEMBL document CHEMBL1201862, “PubChem BioAssay data set” (2004)
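Five compound concentrations were applied to cells in 96-well plates for 48 hours; endpoints were derived by simple linear interpolation of the resulting dose-response curve. Abbreviation: GI50, concentration required for 50% inhibition of growth.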 Calls of active or inactive are those of the source. No stated cut-off is given here; in the data, active = GI50 up to about 1.1 µM and inactive = higher.

Legend:
Test in all cases: NCI tumour cell line growth inhibition, 48 h
OVCAR-8 = system: OVCAR-8
HCT-116 = system: HCT-116
U-251 = system: U-251
HOP-62 = system: HOP-62
K562 = system: K562
RPMI-8226 = system: RPMI-8226
NCI-H522 = system: NCI-H522
RXF 393 = system: RXF 393
SF-295 = system: SF-295
SK-OV-3 = system: SK-OV-3
OVCAR-5 = system: OVCAR-5
UACC-257 = system: UACC-257
HT-29 = system: HT-29
NCI-H23 = system: NCI-H23
ACHN = system: ACHN
HOP-92 = system: HOP-92
HL-60 = system: HL-60
SF-539 = system: SF-539

Measured: GI50

CN1C(=O)CN2C(Cl)(Cl)C2(c2ccccc2F)c2cc([N+](=O)[O-])ccc21 (stereo unspecified)
inactive: OVCAR-8 > 100 µM | HCT-116 31.7 µM | U-251 57.1 µM | HOP-62 > 100 µM | K562 36.8 µM | RPMI-8226 40.8 µM | NCI-H522 > 100 µM | RXF 393 14.6 µM | SF-295 80.4 µM | SK-OV-3 > 10 µM | OVCAR-5 > 100 µM | UACC-257 64.4 µM | HT-29 39.1 µM | NCI-H23 76 µM | ACHN 41.5 µM | HOP-92 19.3 µM

O=[N+]([O-])c1ccc(C2SCc3nc4ccccc4n32)cc1 (stereo unspecified)
inactive: HL-60 43.9 µM | OVCAR-8 > 100 µM | U-251 93.8 µM | HOP-62 > 100 µM | K562 33.4 µM | RXF 393 36.7 µM | SF-295 32.6 µM | SK-OV-3 92.9 µM | SF-539 > 100 µM | OVCAR-5 17.6 µM | UACC-257 42.4 µM | HT-29 > 100 µM | NCI-H23 26.7 µM | ACHN 47.8 µM | HOP-92 23.1 µM

COc1ccc(OC)c2c1CC(C(=O)O)(C(=O)O)CC2=O
inactive: HL-60 > 100 µM | HCT-116 > 100 µM | U-251 > 100 µM | HOP-62 > 100 µM | K562 > 100 µM | RXF 393 > 100 µM | SK-OV-3 > 100 µM | OVCAR-5 > 100 µM | NCI-H23 > 100 µM | ACHN > 100 µM | HOP-92 > 100 µM

CC(C)N(C(=O)C12C3C4C1C1C4(C#N)C3C12C#N)C(C)C (stereo unspecified)
inactive: OVCAR-8 > 100 µM | U-251 > 100 µM | HOP-62 > 100 µM | K562 > 100 µM | RPMI-8226 > 100 µM | RXF 393 > 100 µM | SF-295 > 100 µM | SK-OV-3 > 100 µM | SF-539 > 100 µM | OVCAR-5 > 100 µM | UACC-257 > 100 µM | HT-29 > 100 µM | NCI-H23 > 100 µM | ACHN > 100 µM | HOP-92 > 100 µM

CC(/C=C/c1ncccc1OCCCCCC(=O)O)=N\NC1=NCCN1
inactive: HL-60 > 100 µM | OVCAR-8 > 100 µM | HCT-116 > 100 µM | HOP-62 > 100 µM | K562 > 100 µM | RPMI-8226 > 100 µM | NCI-H522 > 100 µM | RXF 393 68.1 µM | SF-295 > 100 µM | SK-OV-3 > 100 µM | SF-539 > 100 µM | OVCAR-5 > 100 µM | HT-29 > 100 µM | ACHN > 100 µM | HOP-92 > 100 µM

COc1ccc(C(=O)C(C(=O)CCC(=O)Nc2cccc(C(F)(F)F)c2)c2ccccc2)cc1 (stereo unspecified)
inactive: HL-60 61.2 µM | OVCAR-8 > 100 µM | HCT-116 80.7 µM | U-251 > 100 µM | HOP-62 > 100 µM | K562 54 µM | RPMI-8226 55.2 µM | NCI-H522 32.1 µM | SF-295 93.5 µM | SK-OV-3 > 100 µM | SF-539 > 100 µM | OVCAR-5 > 100 µM | UACC-257 62.7 µM | HT-29 65.6 µM | NCI-H23 44.8 µM | ACHN 80.7 µM | HOP-92 53.6 µM

O=NN(CCCl)C(=O)N[C@H]1CC[C@@H](CC(=O)O)CC1
inactive: HL-60 38.3 µM | OVCAR-8 > 100 µM | HCT-116 > 100 µM | U-251 74 µM | HOP-62 > 100 µM | K562 > 100 µM | RPMI-8226 35.2 µM | NCI-H522 > 61.7 µM | RXF 393 > 100 µM | SF-295 67.5 µM | SK-OV-3 > 100 µM | SF-539 45.7 µM | OVCAR-5 > 100 µM | UACC-257 > 100 µM | HT-29 > 100 µM | NCI-H23 > 100 µM | HOP-92 > 84.9 µM

c1ccc(/N=c2\snc3scc(-c4ccccc4)n23)cc1
inactive: HL-60 40.6 µM | OVCAR-8 48.6 µM | U-251 26.8 µM | HOP-62 30.5 µM | K562 52.6 µM | RPMI-8226 28.7 µM | NCI-H522 18.7 µM | RXF 393 46.2 µM | SF-295 37.5 µM | SK-OV-3 84.1 µM | SF-539 37.4 µM | OVCAR-5 > 100 µM | UACC-257 32.5 µM | HT-29 50.5 µM | NCI-H23 36.6 µM | ACHN 48 µM | HOP-92 34.2 µM

COc1ccc(C2S/C(=C\c3ccc(O)cc3)C(=O)N2NC(=O)Cc2ccccc2)cc1 (stereo unspecified)
inactive: HL-60 > 100 µM | OVCAR-8 > 100 µM | HCT-116 > 100 µM | U-251 > 100 µM | HOP-62 > 100 µM | K562 > 100 µM | RPMI-8226 > 100 µM | NCI-H522 > 100 µM | RXF 393 > 100 µM | SF-295 > 100 µM | SK-OV-3 > 100 µM | SF-539 > 100 µM | OVCAR-5 > 100 µM | UACC-257 > 100 µM | HT-29 > 100 µM | NCI-H23 > 100 µM | ACHN > 100 µM | HOP-92 > 100 µM

CCNC1=Nc2ccccc2-n2c(nn3nc4ccccc4c23)N1CC
inactive: HL-60 36.6 µM | OVCAR-8 > 100 µM | HCT-116 > 100 µM | U-251 > 100 µM | HOP-62 > 100 µM | K562 66.7 µM | RPMI-8226 97.1 µM | NCI-H522 72.4 µM | RXF 393 > 100 µM | SF-295 37.3 µM | SF-539 > 100 µM | OVCAR-5 > 100 µM | UACC-257 > 100 µM | HT-29 82.6 µM | NCI-H23 > 100 µM | ACHN > 100 µM | HOP-92 > 100 µM

CC1OC(OCC2OC(Oc3c(-c4ccc(O)cc4)oc4cc(O)cc(O)c4c3=O)C(OC3OC(C)C(O)C(O)C3O)C(O)C2O)C(O)C(O)C1O (stereo unspecified)
inactive: HL-60 > 100 µM | OVCAR-8 > 100 µM | HCT-116 > 100 µM | U-251 > 100 µM | HOP-62 > 100 µM | K562 > 31.6 µM | RPMI-8226 > 56.8 µM | NCI-H522 > 100 µM | RXF 393 > 100 µM | SF-295 > 100 µM | SK-OV-3 > 100 µM | SF-539 > 100 µM | OVCAR-5 > 100 µM | UACC-257 > 100 µM | HT-29 > 100 µM | NCI-H23 > 100 µM | ACHN > 67.6 µM | HOP-92 > 100 µM

O=C(O)CNS(=O)(=O)c1ccc(NC(=O)c2ccc([N+](=O)[O-])cc2)cc1
inactive: HL-60 > 100 µM | OVCAR-8 > 100 µM | U-251 > 100 µM | K562 > 100 µM | RPMI-8226 > 100 µM | NCI-H522 79.6 µM | RXF 393 > 100 µM | SF-295 > 100 µM | SK-OV-3 > 100 µM | SF-539 > 100 µM | OVCAR-5 > 100 µM | UACC-257 > 100 µM | HT-29 > 100 µM | NCI-H23 > 100 µM | ACHN > 100 µM | HOP-92 > 100 µM

C[C@@H]1CC2(C[C@@H](C)C3[C@@H](CC4(C)CCCC5C6=CC(O)(CC[C@]34C)OC6=CC(=O)OC5(C)C)O2)OC1=O (stereo partly specified)
inactive: HL-60 > 100 µM | HCT-116 > 100 µM | U-251 > 100 µM | K562 84.3 µM | RPMI-8226 > 100 µM | NCI-H522 > 100 µM | RXF 393 > 100 µM | SK-OV-3 > 100 µM | SF-539 > 100 µM | OVCAR-5 > 100 µM | NCI-H23 > 100 µM | ACHN > 100 µM | HOP-92 > 100 µM

OCC1O[C@H](O[C@@H]2CCCN3CC(O)C(O)[C@@H]23)C(O)C(O)C1O (stereo partly specified)
inactive: HL-60 > 100 µM | OVCAR-8 > 100 µM | HCT-116 > 100 µM | U-251 > 100 µM | HOP-62 > 100 µM | K562 > 100 µM | NCI-H522 > 100 µM | SF-295 > 100 µM | SK-OV-3 > 100 µM | SF-539 > 100 µM | OVCAR-5 > 100 µM | UACC-257 > 100 µM | HT-29 > 100 µM | NCI-H23 > 100 µM | ACHN > 100 µM | HOP-92 > 100 µM

COc1cc(C2c3cc4c(cc3[C@@H](Nc3ccc(C(=O)O)cc3)C3COC(=O)[C@H]23)OCO4)cc(OC)c1O (stereo partly specified)
inactive: HL-60 2.49 µM | OVCAR-8 14.6 µM | HCT-116 19.4 µM | HOP-62 8.15 µM | RXF 393 9.35 µM | SF-295 14.1 µM | SF-539 6.56 µM | UACC-257 27.2 µM | HT-29 22 µM | NCI-H23 10.6 µM | ACHN 31.6 µM | HOP-92 2.46 µM

CCC(=O)O[C@@H]1C2C(OC(C)=O)C34COC(C)([C@@H]3C3C(C[C@]3(C)OC(C)=O)[C@@H](OC(=O)c3ccccc3)C4=O)[C@H](OC(C)=O)[C@@]2(OC(C)=O)C[C@@H]1C (stereo partly specified)
inactive: HL-60 15.6 µM | OVCAR-8 95.5 µM | HCT-116 30.7 µM | U-251 10.4 µM | HOP-62 25.1 µM | K562 > 10 µM | RPMI-8226 > 100 µM | NCI-H522 37.1 µM | SF-295 12.4 µM | SK-OV-3 15.7 µM | SF-539 14.9 µM | OVCAR-5 94.4 µM | UACC-257 87.9 µM | HT-29 > 100 µM | NCI-H23 14.9 µM | ACHN 36.1 µM | HOP-92 14.7 µM

COC[C@@H]1Cc2cc(OC)c3c(c2[C@H](c2ccc(OC)c(OC)c2)[C@H]1COC)OCO3 [HYPOPHYLLANTHIN]
inactive: HL-60 > 100 µM | OVCAR-8 > 100 µM | HCT-116 99.8 µM | U-251 > 100 µM | K562 > 10 µM | NCI-H522 55.7 µM | RXF 393 42.6 µM | SF-295 57.5 µM | SK-OV-3 > 100 µM | SF-539 38.8 µM | OVCAR-5 > 100 µM | UACC-257 > 100 µM | HT-29 > 100 µM | NCI-H23 > 100 µM | ACHN 93.8 µM | HOP-92 70 µM
